Values joined by “and” are separate entries in the source; they are usually repeats but may differ in a detail not shown here. Equal entries are not always repeated.

For one experiment, the system named is A375 human skin melanoma. In words: MTT cell viability assay, A375. The experiment is classed as cell-based. The note with it: 72 h. From the text:
(§1) Thus, care must be taken when comparing their biological activities with those of our previous studies, even with the same cell line, because the covalent vs. non‐covalent combination of drugs might imply different mechanisms of action in the cell.44 Here, we studied the in vitro activity of ruthenacarborane 3, i. e. free acid, and its 8‐hydroxyquinolyl (4) and 4‐{(7‐chloroquinolin‐4‐yl)oxy}butanol‐1‐yl (5) esters, against a panel of cancer cell lines (B16 mouse melanoma, A375 human skin melanoma, MCF‐7 human breast adenocarcinoma, LN229 human glioblastoma, U251 human glioma). Human fibroblast cell line MRC‐5, murine microglial cell line BV‐2 as well as peritoneal exudate cells (Mph), were chosen as models for non‐malignant cells. […] On the other side, we wanted to assess the reproducibility of the viability data, under either controlled (with BSA) or uncontrolled (without BSA) conditions, in two sets of independent assays. […] Cells were exposed to 3–5 for 72 h, after which cell viability was determined via 3‐(4,5‐dimethylthiazol‐2‐yl)‐2,5‐diphenyltetrazolium bromide (MTT) and crystal violet (CV) assays, in parallel (Table 2). Cisplatin was also tested as reference.
Preparation of drug solutions. […] Stock solution of cisplatin was prepared in DMF (10 mM) immediately before use. A stock solution of BSA in PBS was prepared at 1.28 mM concentration, and stored at 4 °C in the dark. […] Alternatively, 3 or 4 (DMSO stock solution) were added to the BSA solution in PBS, always with a 10 : 1 molar ratio of BSA to ruthenacarborane. The BSA−ruthenacarborane solutions were incubated 0.5–1 h at room temperature, then diluted with cell culture medium to the desired final concentrations. Final concentrations of 3 and 4 were the same as for the BSA‐free formulation. Final DMSO was 0.02–0.5 vol %.
Colorimetric assays for cellular viability. […] For counting the number of attached (viable) cells, cells were fixed with 4 % (w/v) paraformaldehyde for 10 min at room temperature, and subsequently stained for 15 min with […] crystal violet (CV) solution. Cells were then washed with tap water, dried in air, and the CV dye was dissolved in 33 % (w/v) acetic acid solution. For the detection of mitochondrial respiration, cells were cultivated in MTT staining solution (0.5 mg mL^−1) for approximately 1 h. The dye was then discarded, and the formed formazan (purple) was dissolved in DMSO. The absorbance was measured with an automated microplate reader at λmax 540 nm, with the reference λmax 670 nm. Untreated cells or cells treated only with BSA (control) were also measured, as reference for BSA‐free and BSA‐containing drug formulations, respectively. […] Cell viability is expressed as percentage (%) relative to control (untreated cultures).58 Experiments were run in three independent replicates. […]
On the technique in general: Tetrazolium assays rely on reduction of a dye to a coloured formazan, in cell work by metabolically active cells.

Experiment [1] concerns Human fibroblast cell line MRC‐5. The experiment in a line: Crystal violet (CV) cell viability assay, MRC‐5. The class given is cell-based. The note with it: 72 h.
Description: as §1
(§2) Preparation of drug solutions. […] Stock solution of cisplatin was prepared in DMF (10 mM) immediately before use. A stock solution of BSA in PBS was prepared at 1.28 mM concentration, and stored at 4 °C in the dark. […] Alternatively, 3 or 4 (DMSO stock solution) were added to the BSA solution in PBS, always with a 10 : 1 molar ratio of BSA to ruthenacarborane. […]
(§3) Colorimetric assays for cellular viability. […] The absorbance was measured with an automated microplate reader at λmax 540 nm, with the reference λmax 670 nm. Untreated cells or cells treated only with BSA (control) were also measured, as reference for BSA‐free and BSA‐containing drug formulations, respectively. […] Cell viability is expressed as percentage (%) relative to control (untreated cultures).58 Experiments were run in three independent replicates. […]

Experiment [2] concerns primary non‐malignant mouse macrophages (Mph). The experiment in a line: Crystal violet (CV) cell viability assay, peritoneal macrophages (Mph). The experiment is classed as cell-based. The note with it: 72 h.
Description: as §1, §2, §3

The subject of experiment [3] is U251 and LN229 cell lines. The experiment in a line: Cell viability assays (MTT, CV), summary for glioma and glioblastoma lines. The class given is cell-based, human. The note with it: 72 h.
Description: as §1, §2, §3

In experiment [4] the test system is MCF‐7 cells. In words: Wound healing assay, MCF‐7. The class given is cell-based, human. The settings on record: MCF‐7, 20 μM, 72 h.
The test system of experiment [5] is MCF‐7 cells. In words: ApoStat staining (caspase activation), MCF‐7. The settings on record: MCF‐7, 20 μM, 72 h. The class given is cell-based, human. The protocol:
Flow cytometry. For gaining better insights into the mechanisms of action of the ruthenium complexes, MCF‐7 and LN229 cells incubated with an IC50 dose of 3 or 4, were analyzed via flow cytometry. Several staining protocols were carried out in parallel, in independent experiments: i) AnnV/PI for the detection of apoptotic cell death, ii) AO for the detection of acidic vacuoles, iii) ApoStat for checking caspase activation, iv) CFSE for detecting interference with cellular proliferation, and v) DAPI for the detection of morphological signs of apoptosis. Untreated cells or cells treated only with BSA (control) were also measured, as reference for BSA‐free and BSA‐containing drug formulations, respectively. […] Channels FL1 (green emission), FL2 (orange emission) and/or FL3 (dark red emission) were used for fluorescence detection, according to the specific staining agent. Sideward Scatter (SSC) for MCF‐7 cells treated with 4 or BSA−4 was also analyzed, with respect to the control, for detection of shifts of cell granularity. […]
Staining Protocols for Flow Cytometric Analysis. […] Finally, cells were washed in PBS, resuspended in PBS (or AnnV‐binding buffer for AnnV/PI), and analysed. […] Cells were then washed, trypsinised, dissolved in PBS and analysed by CyFlow® Space Partec using the PartecFloMax® software (Partec GmbH, Münster, Germany). […]

For the substance “closo‐ [Compound 3, closo‐ [3‐(η^6‐p‐Cymene)‐1‐(CH2COOH)‐3,1,2‐RuC2B9H10]]”, the IC50 with A375 human skin melanoma was 9.7 ± 1.1 µM; in experiment [1], 58.5 ± 0.3 µM; in experiment [2], 49 µM and 49.1 µM. Also, the “activity against LN229 and U251 (in words)” value in experiment [3] (concentration range tested up to 100 μM) was “inactive”. The “cell migration (wound healing assay, in words)” value in the experiment on MCF‐7 cells [4] is “inhibited cell migration”. In addition, in the experiment on MCF‐7 cells [5], the “caspase activation (ApoStat)” value is recorded as “induce caspase activation”.

For the substance “closo ‐[3‐(η^6‐p‐Cymene)‐1‐(quinolin‐8‐yl‐acetate)‐3,1,2‐RuC2B9H10] [Compound 4]”, the IC50 in the experiment with A375 human skin melanoma is 11.9 ± 1.2 µM; in experiment [1], 4.9 ± 0.1 µM; in experiment [2], 94 ± 7.7 µM; in experiment [3] (range over both cell lines, depending on assay and formulation type, read-out: IC50 concentrations against U251 and LN229) it was 33 to 45 µM. Besides, in the experiment on MCF‐7 cells [4], the “cell migration (wound healing assay, in words)” value was “inhibited cell migration”. Moreover, in the experiment on MCF‐7 cells [5], the “caspase activation (ApoStat)” value is given as “caspase‐independent apoptosis”.
